PubChem BioAssay (NCI)
“And” between values parts separate entries of the source, which are not always exact repeats. Equal values may be shown once.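 Where inhibition never reached the appropriate level, the endpoint shown equals the highest concentration tested. Otherwise, values were interpolated linearly from a five-concentration, 48-hour dose response in 96-well plates. GI50 is the concentration that inhibits growth by half. Definition used: TGI = concentration required for complete inhibition of growth.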

Tests used:
Assay in all cases: inhibition of tumour cell growth, NCI panel, 48 h
CAKI-1 renal = tested on: CAKI-1 renal
COLO 205 colon = tested on: COLO 205 colon
KM12 colon = tested on: KM12 colon
M14 melanoma = tested on: M14 melanoma
MCF7 breast = tested on: MCF7 breast
NCI-H23 lung = tested on: NCI-H23 lung
OVCAR-3 ovarian = tested on: OVCAR-3 ovarian
SR leukemia = tested on: SR leukemia
U251 CNS = tested on: U251 CNS
UACC-62 melanoma = tested on: UACC-62 melanoma

Row | Compound | GI50 (CAKI-1 renal) | TGI (CAKI-1 renal) [µM] | GI50 (COLO 205 colon) | TGI (COLO 205 colon) [µM] | GI50 (KM12 colon) | TGI (KM12 colon) [µM] | GI50 (M14 melanoma) | TGI (M14 melanoma) [µM] | GI50 (MCF7 breast) | TGI (MCF7 breast) [µM] | GI50 (NCI-H23 lung) | TGI (NCI-H23 lung) [µM] | GI50 (OVCAR-3 ovarian) | TGI (OVCAR-3 ovarian) [µM] | GI50 (SR leukemia) | TGI (SR leukemia) [µM] | GI50 (U251 CNS) | TGI (U251 CNS) [µM] | GI50 (UACC-62 melanoma) | TGI (UACC-62 melanoma)
1 | Nc1nn(C(=O)Nc2ccc(Cc3ccccc3)cc2)c2ccc(Cl)cc12 | 0.212 µM | > 100 | 1.92 µM | 28.9 | 0.0755 µM | > 100 | 0.0666 µM | 11.7 | 0.422 µM | 18 | 5.72 µM | > 82.7 | 7.14 µM | 21.6 | 12.6 µM | 26.5 | 13 µM | 29.1 | 0.0397 µM | > 100 µM
2 | COc1ccc(Nc2nc(NCc3ccccc3)c3ccccc3n2)cc1 | 3.69 µM | 14 | 1.86 µM | 3.33 | 3.81 µM | 13.8 | 2.3 µM | 5.73 | 1.81 µM | 3.63 | 3.02 µM | 13.7 | 2.35 µM | 5.73 | 2.19 µM | 6.01 | 2.17 µM | 3.97 | 10.1 µM | 23.3 µM
3 | Cc1ccccc1NC(=O)N/C(N)=N/c1nc2ccccc2s1 | 0.0499 µM | > 100 | 0.0514 µM | 4.28 | 0.0399 µM | > 100 | 0.0348 µM | 1.41 | 0.0359 µM | > 100 | 0.209 µM | > 100 | 0.0358 µM | 0.267 | 0.0392 µM | > 100 | 0.0547 µM | > 100 | 0.0425 µM | > 100 µM
4 | COc1ccccc1/C=C1\CCC(CN(C)C)C1=O (centres undefined) |  | 12 |  | 8.38 |  | 12.4 |  | 11.1 |  | 5.87 |  | 25.1 |  | 18.6 |  | 13 |  | 26.9 |  | 13.9 µM
5 | COc1cccc(C2=NN(C(C)=O)C(c3cc(OC)c(OC)c(OC)c3)C2)c1 (centres undefined) | 2.79 µM | > 100 | 3.35 µM | 12.3 | 1.48 µM | > 100 | 1.47 µM | > 100 | 0.529 µM | > 32.3 | 3.48 µM | > 100 | 1.09 µM | 3.8 | 0.437 µM | > 100 | 3.37 µM | > 100 | 3.85 µM | > 100 µM
6 | O=Cc1ncc(-c2ccc(C(F)(F)F)cc2)c(NC2CCCCCC2)n1 | > 10 µM | > 10 | > 10 µM | > 10 | > 10 µM | > 10 | > 10 µM | > 10 | > 10 µM | > 10 | > 10 µM | > 10 | > 10 µM | > 10 | 5.7 µM | > 10 | > 10 µM | > 10 | > 10 µM | > 10 µM
7 | Oc1ccc(Cl)cc1Cc1cc(Cl)cc(Cc2cc(Cl)ccc2O)c1O |  | 13 |  | 3.25 |  | 10.5 |  | 6.71 |  | 6.98 |  | 6.62 |  | 11 |  | 11.6 |  | 11.8 |  | 10.1 µM
8 | CN(C)c1cc2c(Nc3ccc4nc(Cc5ccccc5)[nH]c4c3)ncnc2cn1 | 9.82 µM | > 25 | > 25 µM | > 25 | 13.8 µM | > 25 | > 25 µM | > 25 | > 15.3 µM | > 25 | > 23.9 µM | > 25 | > 18.3 µM | > 25 | 8.79 µM | > 25 | > 17.5 µM | > 25 | > 18.3 µM | > 25 µM
9 | S=C(Nc1ccc(-c2nc3ccccc3s2)cc1)Nc1ccccn1 | 17.3 µM | 45.7 | 18.9 µM | 42.3 | 21.9 µM | > 70.8 | 25.2 µM | 60.9 | > 100 µM | > 100 | 25.7 µM | 70.6 | 18.7 µM | > 53.9 | 26.6 µM | 57.4 | 27.9 µM | > 100 | 21.4 µM | 57.3 µM
10 | COc1c(Nc2ncc(Cl)c(N[C@@H]3[C@H]4C=CC(C4)[C@@H]3C(N)=O)n2)ccc2c1CC[C@@H](N1CCOCC1)CC2 | 3.08 µM | 14.2 | 1.74 µM | 5.5 | 4.93 µM | 25.2 | 2.14 µM | 12.7 | 2.01 µM | 17.1 | 6.02 µM | 24.7 | 7.06 µM | 24.5 | 0.43 µM | 5.64 | 3.2 µM | 15.7 | 2.81 µM | 18.8 µM
11 | CCNC(=O)Nc1ccc(-c2nc3c(c(N4CCOC[C@@H]4C)n2)CCN(C2COC2)C3)cc1 | 0.586 µM and 0.179 µM | > 31.5 | 0.289 µM and 0.268 µM | > 100 | 0.507 µM and 0.403 µM | > 100 | 0.418 µM and 0.323 µM | > 100 | 0.121 µM and 0.115 µM | > 100 | 0.69 µM and 0.512 µM | > 100 | 0.355 µM and 0.229 µM | > 69.5 | 0.439 µM and 0.416 µM | > 100 | 0.357 µM and 0.413 µM | > 100 | 0.194 µM and 0.0727 µM | 1.28 µM and 0.994 µM
12 | CCc1ccc(/C(C#N)=C/C=C/c2ccccc2)cc1 | 10.1 µM | > 100 | 1.83 µM | 5.91 | 1.61 µM | > 100 | 2.24 µM | > 100 | 1.14 µM | > 100 | 6.24 µM | > 100 | 2.46 µM | 13.6 | 0.644 µM | > 61.4 | 3.16 µM | > 100 | 3.48 µM | > 100 µM
13 | NC(=O)Cc1ccccc1Oc1nccc(-c2c(-c3ccc(F)cc3)ncn2C2CCNCC2)n1 | > 25 µM | > 25 | > 25 µM | > 25 | > 25 µM | > 25 | > 25 µM | > 25 | > 25 µM | > 25 | > 25 µM | > 25 | > 25 µM | > 25 | > 25 µM | > 25 | > 25 µM | > 25 | > 25 µM | > 25 µM
14 | O=C1OCC2=C1C(c1cccc([N+](=O)[O-])c1)c1cc3c(cc1N2CCO)CCC3 (centres undefined) | 0.083 µM | > 38 | 0.153 µM | 2.39 | 0.0928 µM | 19.8 | 0.112 µM | 17.2 | 0.0596 µM | > 50 | 0.335 µM | > 50 | 0.0961 µM | 0.518 | 0.0554 µM | > 36.3 | 0.218 µM | > 50 | 0.0298 µM | > 24.8 µM
15 | COc1cc2c3c(n(CCCN=[N+]=[N-])c(=O)c2cc1OC)-c1ccc(N)cc1C3=O | 0.132 µM | 2.8 | 0.4 µM | 1.23 | 0.334 µM | 1.16 | 0.0591 µM | 0.237 | 0.143 µM |  | 0.17 µM | 0.73 | 0.249 µM | 0.923 | 0.0276 µM | 0.498 | 0.0832 µM | 0.766 | 0.082 µM | 0.451 µM
16 | Clc1cccc(Cn2cc(Cc3cn(Cc4cccc(Cl)c4)c4ccccc34)c3ccccc32)c1 | > 100 µM | > 100 | > 100 µM | > 100 | > 100 µM | > 100 | > 100 µM | > 100 | > 100 µM | > 100 | > 100 µM | > 100 | > 100 µM | > 100 | > 100 µM | > 100 | > 100 µM | > 100 | > 100 µM | > 100 µM
17 | O=C(Nc1cccnc1)c1cccs1 | 1.4 µM | > 100 | 3.08 µM | > 100 | 0.941 µM | > 100 | 0.506 µM | > 100 | 1.67 µM | > 100 | 4.84 µM | > 100 | 1.19 µM | > 100 | 8.47 µM | > 100 | 1.86 µM | > 100 | 28.1 µM | > 100 µM
